In test [1] the test system is serum iron. Put plainly: In vivo serum iron reduction in mice. Also noted: species or system mice (C57-BL6). Conditions: tested in rats or in mice. The method, then: Instead of rats, mice (C57-BL6) were tested.
A similar experiment was performed with lower doses to assess the dose response of these compounds for inducing serum iron reduction. Methods were as described above in this Example, except for the following parameters: n=4 mice/group, however n=8 for the vehicle, as two groups were pooled. Mice were administered test compounds at two separate dosages (300 nmol/kg or 1000 nmol/kg), via subcutaneous injection. Serum iron levels were assessed as in Example 8 two hours after peptide or vehicle injection. […] Moreover, it was clear that several of the compounds were able to induce maximum effects at dosages as low as 300 nmol/kg.
The route of peptide administration was via subcutaneous injection, unless otherwise indicated as having been via intraperitoneal injection (this is noted on the table by “i.p.” in parentheses following the “yes” or “no” determination).
The peptides were also tested for other pharmacokinetic/pharmacodynamic (PK/PD) parameters using methods commonly know by the skilled artisan. These parameters included determinations regarding stability (hours stable in plasma from the indicated human or rat subject), half-life in mice, and in vitro activity (EC50), tested as described in Example 2.

The test system of test [2] is serum iron. The experiment in a line: In vivo serum iron reduction in mice. On the set-up: species or system mice (C57-BL6). Conditions: C57BL6 mice, time course, FIG. 6.
The subject of test [3] is serum iron. The experiment in a line: Reduction of free plasma iron in rats (serum iron after i.p. dosing). It counts as in vivo, Sprague-Dawley rats. The settings on record: IP dosing, FIGS. 2 and 3. The procedure: At Day 1, the animals were monitored for free Fe^2+ in serum. In order to reach a homogenous serum level, Fe^2+ was analyzed and a homogenous cohort of 7 or 8 animals randomized to each treatment group. At Day 2, an acute experiment where the animals were subjected to i.p. dosing of test compound and subsequent tail vein blood samples. Prior to dosing, the animals were put under a heating lamp for 3-5 minutes. Blood samples were drawn from the tail vein from all animals in order to determine serum iron levels prior to vehicle or compound dosing. Animals were dosed i.p. with 1 ml of test substance in vehicle or just vehicle and blood samples of 250 μl was drawn from each animal at t=0, 60, 120, 240, 360 min and 24 hours in the study of the reference compound. The dose response study performed with Retro Inverse (RI) mini-Hepcidin (Reference compound), and the efficacy study performed with Compound No. 2 were performed as two separate experiments. […]
Male Sprague-Dawley rats weighing 200-250 g were used in the study. […] Humane endpoints were applied, according to OECD's “Guidelines for Endpoints in Animal Study Proposals.” The animals were monitored daily.
Iron content in plasma/serum is measured for iron content using a colorimetric assay on the Cobas c 111 according to instructions from the manufacturer of the assay (assay: IRON2: ACN 661). […]

In another test the target is T1, human ferroportin (Homo sapiens, UniProt Q9NP59).
T1 sequence (Q9NP59 1-571): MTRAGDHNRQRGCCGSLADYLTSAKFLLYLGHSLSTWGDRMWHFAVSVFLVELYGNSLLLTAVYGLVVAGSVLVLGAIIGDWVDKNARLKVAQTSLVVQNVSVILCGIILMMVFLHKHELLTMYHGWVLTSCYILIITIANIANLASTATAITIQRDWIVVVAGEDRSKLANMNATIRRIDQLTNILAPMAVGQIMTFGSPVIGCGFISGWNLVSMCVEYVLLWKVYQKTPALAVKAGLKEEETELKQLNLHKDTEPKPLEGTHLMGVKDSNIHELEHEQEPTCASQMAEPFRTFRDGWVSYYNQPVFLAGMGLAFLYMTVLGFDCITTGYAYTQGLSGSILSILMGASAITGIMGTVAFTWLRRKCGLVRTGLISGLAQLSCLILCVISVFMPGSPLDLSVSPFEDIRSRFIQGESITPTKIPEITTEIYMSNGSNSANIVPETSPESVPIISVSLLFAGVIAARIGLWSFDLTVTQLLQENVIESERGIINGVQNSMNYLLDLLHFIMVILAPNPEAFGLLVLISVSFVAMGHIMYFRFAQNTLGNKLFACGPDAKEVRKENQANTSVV
The class given is cell-based. The settings on record: for % Activity At 1 uM: at 1 uM peptide, monomers and disulphide-linked dimers. The source says: The cDNA encoding the human ferroportin (SLC40A1) was cloned from a cDNA clone from Origene (NM_014585). The DNA encoding the ferroportin was amplified by PCR using primers also encoding terminal restriction sites for subcloning, but without the termination codon. The ferroportin receptor was subcloned into a mammalian GFP expression vector containing a neomycin (G418) resistance marker in such that the reading frame of the ferroportin was fused in frame with the GFP protein. The fidelity of the DNA encoding the protein was confirmed by DNA sequencing. HEK293 cells were used for transfection of the ferroportin-GFP receptor expression plasmid. The cells were grown according to standard protocol in growth medium and transfected with the plasmids using Lipofectamine (manufacturer's protocol, Invitrogen). […] The cells were propagated and frozen in aliquots.
A retro inverse peptide is a peptide with a reversed sequence in all D amino acids. […] The EC50 of these reference compounds for ferroportin degradation was determined according to the activity assay described above.

Where [4] appears, read: Hepcidin analog peptides, read-out: Potency EC50.
Setting [5] is: read-out: EC50 (nM) (n > 3), alanine scan of Compound 18.
The mark [6] stands for this setting: read-out: EC50 (nM) (n = 3), in vitro activity as in Example 2, peptide monomers and dimers dimerized through a single disulphide linkage, n = 3.
The mark [7] stands for this setting: cysteine replacement scan of Mini-Hepcidin derivatives.

Like-named read-outs stand apart in the source and are kept apart here.

For “Isovaleric acid-DTHFPCIKFEPRSKGWVCK-NH2 [Compound 181]”, in the test on serum iron [1] (300 nmol/kg), the “In Vivo Activity (s.c.) 300 nmol/kg” value is recorded as “Yes”. For the same substance, in the test with serum iron [2], the “serum iron, PK/PD effects” value was “a rapid decrease in serum iron, which was transient”.
For “Isovaleric acid-DTHFPCIIFEPRSKGWVCK-NH2 [Compound 105]”, in the test on serum iron [1] (300 nmol/kg), the “In Vivo Activity (s.c.) 300 nmol/kg” value is “Yes”. Moreover, the “In Vivo Activity (s.c.) 1000 nmol/kg” value in the test with serum iron [1] (1000 nmol/kg) is “Yes”.
For the substance “Isovaleric acid-DTHFPCIEFGPRSKGWVCK-NH2 [Compound 15]”, in the test with serum iron [1] (1000 nmol/kg), the “In Vivo Activity (s.c.) 1000 nmol/kg” value is “Minor”.
For “Hy-DTHFPIC(1)IFC(2)C(3)GC(2)C(4)HRSKC(3)GMC(4)C(1)KT-OH [Hepcidin, reference compound]”, the “In Vivo Activity (s.c.) 300 nmol/kg” value with serum iron [1] (300 nmol/kg) was “Yes”. For the same substance, the “In Vivo Activity (s.c.) 1000 nmol/kg” value in the test on serum iron [1] (1000 nmol/kg) is given as “Yes”.
Turning to “Isovaleric acid-DTHFPCIKF-K(PEG8)-PRSKGWVCK-NH2 [Compound 150]”, the “In Vivo Activity (s.c.) 300 nmol/kg” value with serum iron [1] (300 nmol/kg) is “Yes”.
Regarding “Hy-DPhe-DIle-DCys-DIle-DPro-DPhe-DHis-DThr-DAsp-NH2 [RI-Mini Hepcidin, reference compound]”, in the test with serum iron [3], the serum iron level result was “in neither case significant”.
For “Isovaleric acid-DTHFPICIFGPRSKGWVC-NH2 [Compound 2]”, the serum iron level entry in the test on serum iron [3] is on record as “a decrease in serum iron level that was comparable to that observed after injection of the positive control”. In the test on serum iron [1] (300 nmol/kg), the “In Vivo Activity (s.c.) 300 nmol/kg” value is “Yes”. In the test with serum iron [1] (1000 nmol/kg), the “In Vivo Activity (s.c.) 1000 nmol/kg” value is “Yes”.
As for “H-DTHFPICIFGPRSKAWVCM-NH2 (cysteine pairing not given here) [Compound 31]”, the EC50 at human ferroportin (setting [4]) and at human ferroportin (setting [5]) was 175 nM in each case.
On to “(Isovaleric acid-DTHFPCIKF-NH2)2 [Compound 326]”, for which the “% Activity At 1 uM” value at human ferroportin worked out at 100%.
“H-DTHFKCIIFGPRSKGWVCK-NH2 (cysteine pairing not given here) [Compound 131]”: the “Potency EC50 (nM)” value on human ferroportin (Hepcidin analog peptides) is “Inactive”.
As for H-DTHFPCILF-NH2 [Compound 308], at human ferroportin, the “% Activity At 1 uM” value came out at 89%. Also, the EC50 at human ferroportin (setting [6]) was above 300 nM.
Consider “H-DTHFPCIKFGPRSKGWVCM-NH2 (cysteine pairing not given here) [Compound 136]”, for which, on human ferroportin (setting [4]), the 50% effective concentration (EC50) was found to be 669 nM.
Turning to “Isovaleric acid-DTHFPCIKFEPRSKGCK-NH2 [Compound 184]”, the “In Vivo Activity (s.c.) 300 nmol/kg” value in the test with serum iron [1] (300 nmol/kg) is on record as “Yes”. Further, the “In Vivo Activity (s.c.) 1000 nmol/kg” value in the test with serum iron [1] (1000 nmol/kg) is listed as “Yes”.
Consider “Isovaleric acid-DTHAPCIKFEPRSKGWECK-NH2 [Compound 243]”, for which the “Potency EC50 (nM)” value on human ferroportin (Hepcidin analog peptides) was “Inactive”.
Consider “H-DTHFPICIAGPRSKGWVCM-NH2 (cysteine pairing not given here) [Compound 67]”, for which the EC50 at human ferroportin (setting [4]) and on human ferroportin (setting [5]) was 2470 nM each time.
Regarding Hy-ETHFPCIIF-NH2 [Compound 300], the “% Activity At 1 uM” value at human ferroportin was determined as 77%. The EC50 at human ferroportin (setting [6]) was above 300 nM.
For “Isovaleric acid-DTHFPCIIFGPRSRGWVCK-NH2 [Compound 3]”, the “In Vivo Activity 300 nmol/kg (i.p.)” value in the test with serum iron [1] (300 nmol/kg, i.p.) is on record as “No (i.p.)”. For the same substance, the “In Vivo Activity 1000 nmol/kg (i.p.)” value in the test with serum iron [1] (1000 nmol/kg, i.p.) is listed as “No (i.p.)”.
In the case of “H-DTHFGCIIFGPRSKGWVCK-NH2 (cysteine pairing not given here) [Compound 123]”, the “Potency EC50 (nM)” value at human ferroportin (Hepcidin analog peptides) is “Inactive”.
For the substance “Isovaleric acid-DTHFPCIKFGPRSKGWVC-K(PEG8)-NH2 [Compound 153]”, the “In Vivo Activity (s.c.) 300 nmol/kg” value in the test with serum iron [1] (300 nmol/kg) is listed as “Yes”. Moreover, the “In Vivo Activity (s.c.) 1000 nmol/kg” value in the test on serum iron [1] (1000 nmol/kg) is on record as “Yes”. Also, the “serum iron, PK/PD effects” value in the test with serum iron [2] was “sustained”.
For the substance H-DTHFPCIEF-NH2 [Compound 287], on human ferroportin (setting [4]), the 50% effective concentration (EC50) was above 1000 nM.
H-DTHFPIAIFGPRSKGWVAM-NH2 [Compound 69]: the “Potency EC50 (nM)” value on human ferroportin (Hepcidin analog peptides) was “Inactive”. Moreover, the “EC50 (nM) (n > 3)” value on human ferroportin (alanine scan of Compound 18) was “Inactive”.
Consider “H-DTHFPICIFGPRSKGAVCM-NH2 (cysteine pairing not given here) [Compound 66]”, for which the half-maximal effective concentration (EC50) at human ferroportin (setting [4]) and on human ferroportin (setting [5]) was 520 nM in each case.
Consider “H-DTHFPICIFGPHRSKGWVCM-NH2 (cysteine pairing not given here) [Compound 27]”, for which the concentration for a half-maximal effect (EC50) on human ferroportin (setting [4]) worked out at 149 nM.
Consider H-DTHFPIAIFAAGICI-NH2 [Compound 269], for which, at human ferroportin (Hepcidin analog peptides), the “Potency EC50 (nM)” value was “Inactive”. In addition, the “EC50 (nM) (n > 3)” value on human ferroportin (setting [7]) is reported as “Not active”.
As to “Isovaleric acid-DTHFPCIQFGPRSKGWVCK-NH2 [Compound 10]”, the “In Vivo Activity (s.c.) 1000 nmol/kg” value in the test on serum iron [1] (1000 nmol/kg) is “Minor”.
As for H-DTHFPIAICI-NH2 [Compound 274], the “Potency EC50 (nM)” value on human ferroportin (Hepcidin analog peptides) is on record as “Inactive”. In addition, the “EC50 (nM) (n > 3)” value on human ferroportin (setting [7]) is “Not active”.
Turning to “Isovaleric acid-DTHFPCIIFGPRSKGCK-NH2 [Compound 115]”, the “In Vivo Activity (s.c.) 1000 nmol/kg” value in the test on serum iron [1] (1000 nmol/kg) is reported as “No”.
“H-DTHFPCIIFGPRSKGWVCM-NH2 (cysteine pairing not given here) [Compound 21]”: the EC50 on human ferroportin (setting [4]) was determined as 46 nM.
On to “Isovaleric acid-DTHFPICIFGPRS-K(PEG8)-GWVC-NH2 [Compound 176]”, for which the “In Vivo Activity (s.c.) 300 nmol/kg” value in the test with serum iron [1] (300 nmol/kg) was “Yes”.
For the substance H-DTHFPCILK-NH2 [Compound 309], the “% Activity At 1 uM” value at human ferroportin was 55%. Also, the 50% effective concentration (EC50) at human ferroportin (setting [6]) was above 300 nM.
Consider H-DTHFPCIIFK-NH2 [Compound 55], for which the EC50 on human ferroportin (setting [4]) worked out at 419 nM.
Still for that read-out and setting: as for “H-EDTHFPCIIFGPRSKGWVCM-NH2 (cysteine pairing not given here) [Compound 137]”, the figure is 873 nM.
Take “Isovaleric acid-DTHFPCIKFGPRSKGWVCK-NH2 [Compound 9]”: in the test on serum iron [1] (300 nmol/kg), the “In Vivo Activity (s.c.) 300 nmol/kg” value is “Yes”. The “In Vivo Activity (s.c.) 1000 nmol/kg” value in the test with serum iron [1] (1000 nmol/kg) is recorded as “Yes”.
Consider H-DTHFPIICI-NH2 [Compound 275], for which the “Potency EC50 (nM)” value at human ferroportin (Hepcidin analog peptides) is reported as “Inactive”. Further, at human ferroportin (setting [7]), the “EC50 (nM) (n > 3)” value is listed as “Not active”.
Take “H-HFPCIIFGPRSKGWVCK-NH2 (cysteine pairing not given here) [Compound 99]”: the “Potency EC50 (nM)” value on human ferroportin (Hepcidin analog peptides) was “Inactive”.
For H-DTHFPCIIK-NH2 [Compound 304], the “% Activity At 1 uM” value on human ferroportin was 55%. On human ferroportin (read-out: EC50 (n = 3), cells printed in μM, in vitro activity as in Example 2, peptide monomers and dimers dimerized through a single disulphide linkage, n = 3), the concentration for a half-maximal effect (EC50) was above 1000 nM.
